The source of these data is US11879137B2, “Treatment of type 1 diabetes and autoimmune diseases or disorders” (THE CHILDREN'S MEDICAL CENTER CORPORATION, priority 2017, dated 2024).

The assay has as its system PD-L1 on CD34+ cells. Kind of assay: Prostaglandin library screening and FACS of PD-L1 on human CD34+ cells. The class given is cell-based. The following applies: for PD-L1 expression by FACS analysis: CD34+ cells, 10 μM pulsed at 24 and 48 hours. The source says:
FIGS. 17A-17J show prostaglandins enhance PD-L1 expression on human CD34^+ cells. (FIG. 17A-17B) Results of screening of a prostaglandin small molecule library tested for the ability to upregulate PD-L1 (MFI) on CD34^+ cells obtained from T1D patients. The schematic of the experimental design is shown in (A). The 3-color coding shown in (FIG. 17B) represents lowest PD-L1 MFI values (blue), median PD-L1 MFI values (pink) and highest PD-L1 MFI values (red). (FIG. 17C-17D) Representative flow cytometric analysis and quantitative bar graph of PD-L1 expression on CD34^+ cells from T1D patients pre- and post-pharmacologic modulation with PGE2 as compared to CD34^+ cells obtained from healthy controls. (FIG. 17E) PD-L1 and CXCR4 expression (mRNA) fold change was quantified for CD34^+ cells pre- and post-modulation with PGE2. (FIG. 17F) Migration assay using CD34^+ cells pre- and post-modulation with PGE2. (FIG. 17G) Confocal imaging of CD34^+ cells pre- and post-modulation with PGE2, showing DAPI (in blue) and PD-L1 (in green) staining. 63× magnification. Scale bar, 50 (FIG. 17H) IDO-1 expression (mRNA) fold change was quantified for CD34^+ cells pre- and post-modulation with PGE2. (FIG. 17I-17J) Representative flow cytometric analysis (FIG. 17I) and quantitative bar graph (FIG. 17J) of PD-L1 expression on CD34^+ cells from T1D patients pre- and post-pharmacologic modulation with 4 small molecule PGE2 agonists. All data are expressed as mean±SEM. *P<0.05, **P<0.001. Abbreviations: MFI, mean fluorescence intensity.
Pharmacological modulation of human CD34+ cells. 1×105 of isolated human CD34+ HSPCs (purity 99%) were cultured in 200 μl of StemSpan SFEM II media (SEMCELL Technologies Inc., Cambridge, MA, USA), and each compound in the Prostaglandin Screening Library II (Cayman Chemicals, Ann Arbor, MI), was added individually at day 0 and at day 1 at a concentration of 10 μM as previously reported by the inventors and others (9, 21). In another assay, isolated CD34+ cells from freshly isolated human PBMCs or from cryopreserved PBMCs, and processed as described earlier, were cultured in the presence of a cocktail of cytokines containing: 10 μg/ml heparin (SEMCELL Technologies Inc., Cambridge, MA, USA), 10 ng/ml human SCF (Miltenyi Biotec, San Diego, CA), 20 ng/ml human TPO (Miltenyi Biotec, San Diego, CA), 10 ng/ml human FGF-1 (Miltenyi Biotec, San Diego, CA), 100 ng/ml IGFBP2 (R&D Systems, Inc., Minneapolis, MN), and 500 ng/ml Angptl3 (R&D Systems, Inc., Minneapolis, MN). PGE2 (PromoKine, PromoCell Gmbh, Germany) was added by pulsing the culture at 0, 24h, 72h and 6 days with 2 μl of diluted PGE2 (10 μM). Cells were cultured for 7 days at 37° C. in 5% CO2, and CD34+ cells were then subjected to FACS analysis and were run on a FACSCelesta™ (Becton Dickinson, Franklin Lakes, NJ). Data were analyzed using FlowJo software version 8.7.3 (Treestar, Ashland, OR). The different cytokines used here and their related concentration as well as the choice of the incubation timing was used as previously reported in the literature (22).
Prostaglandin library screening. PGE2 has been described as a small molecule known to enhance the homing and engraftment of HSPCs. It was therefore sought to screen all known types of prostaglandins using the Prostaglandin Screening Library II, which contains 64 small molecules. Each small molecule contained in the library was first screened for its capacity to upregulate PD-L1 in human CD34+ cells isolated from T1D patients (FIG. 17A-17B). CD34+ cells isolated from T1D patients were cultured in StemSpan SFEMII and pulsed with each PG (prostaglandin) small molecule contained in the aforementioned library at a concentration of 10 μM at 24 and 48h. Using FACS analysis, the MFI (mean fluorescence intensity) of PD-L1 expression was calculated following treatment with each small molecule used to modulate CD34+ cells as compared to untreated/unmodulated CD34+ cells (FIG. 17B). […]
Background: In flow cytometry, cells or beads pass a laser one at a time.

Molecules are shown by their SMILES.

In the case of `CCCCC(C)(C)[C@H](O)/C=C/[C@H]1[C@H](O)CC(=O)[C@@H]1C/C=C\CCCC(=O)O` [16,16-dimethyl PGE2], the “PD-L1 expression by FACS analysis” value is listed as “robust upregulation”. For the same compound, where the note is “10 μM, CD34+ cells from T1D patients”, the “capacity to upregulate PD-L1 (MFI) in library screening” value is “strongest capacity”.
Consider `CCCCC[C@H](O)/C=C/[C@H]1[C@H](O)CC(=O)[C@@H]1C/C=C\CCCC(=O)O` [PGE2, prostaglandin E2], for which the “PD-L1 expression by FACS analysis” value is given as “slight increase”.
